Assays:
[1] = target: T1, IKKε (Homo sapiens, UniProt Q14164); assay: TR-FRET enzymatic activity assay, IKKε; type: biochemical; conditions: read-out: IKKϵ IC50; further: full length recombinant IKKε at 0.3 nM
T1 construct: TBK1 and IKKε were expressed and purified as full length recombinant proteins; made in house
T1 sequence (Q14164 1-716): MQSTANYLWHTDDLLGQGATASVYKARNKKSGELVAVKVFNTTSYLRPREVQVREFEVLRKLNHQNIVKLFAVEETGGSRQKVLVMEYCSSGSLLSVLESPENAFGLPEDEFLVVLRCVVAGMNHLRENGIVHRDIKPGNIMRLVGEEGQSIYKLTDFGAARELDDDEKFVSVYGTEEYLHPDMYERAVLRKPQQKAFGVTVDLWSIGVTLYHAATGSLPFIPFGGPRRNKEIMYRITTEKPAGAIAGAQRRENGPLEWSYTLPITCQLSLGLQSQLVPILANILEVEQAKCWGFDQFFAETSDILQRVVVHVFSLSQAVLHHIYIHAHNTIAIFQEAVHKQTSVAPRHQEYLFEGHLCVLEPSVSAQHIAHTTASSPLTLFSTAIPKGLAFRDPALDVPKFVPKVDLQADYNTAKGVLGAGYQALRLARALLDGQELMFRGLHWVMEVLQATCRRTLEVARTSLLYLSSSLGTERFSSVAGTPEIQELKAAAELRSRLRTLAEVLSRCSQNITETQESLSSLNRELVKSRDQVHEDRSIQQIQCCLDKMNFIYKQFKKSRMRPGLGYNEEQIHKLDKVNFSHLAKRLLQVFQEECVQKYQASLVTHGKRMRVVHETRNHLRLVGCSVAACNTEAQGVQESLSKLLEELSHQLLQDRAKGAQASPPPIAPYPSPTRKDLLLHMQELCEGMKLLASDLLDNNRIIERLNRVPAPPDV
Method in brief: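 Full-length recombinant IKKε phosphorylated a biotinylated Ser/Thr peptide for 240 min at 25 °C; EDTA stop. Phospho-peptide detected by TR-FRET with streptavidin-XL665 (125 nM) and Eu-cryptate anti-phospho antibody. Normalised to staurosporine and DMSO controls; IC50 from four-parameter fit, geometric mean of ≥4 runs.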

[2] = target: T2, TBK1 (Homo sapiens, UniProt Q9UHD2); assay: TR-FRET enzymatic activity assay, TBK1; type: biochemical; further: full length recombinant TBK1 at 2.5 nM
T2 construct: TBK1 and IKKε were expressed and purified as full length recombinant proteins; made in house
T2 sequence (Q9UHD2 1-729): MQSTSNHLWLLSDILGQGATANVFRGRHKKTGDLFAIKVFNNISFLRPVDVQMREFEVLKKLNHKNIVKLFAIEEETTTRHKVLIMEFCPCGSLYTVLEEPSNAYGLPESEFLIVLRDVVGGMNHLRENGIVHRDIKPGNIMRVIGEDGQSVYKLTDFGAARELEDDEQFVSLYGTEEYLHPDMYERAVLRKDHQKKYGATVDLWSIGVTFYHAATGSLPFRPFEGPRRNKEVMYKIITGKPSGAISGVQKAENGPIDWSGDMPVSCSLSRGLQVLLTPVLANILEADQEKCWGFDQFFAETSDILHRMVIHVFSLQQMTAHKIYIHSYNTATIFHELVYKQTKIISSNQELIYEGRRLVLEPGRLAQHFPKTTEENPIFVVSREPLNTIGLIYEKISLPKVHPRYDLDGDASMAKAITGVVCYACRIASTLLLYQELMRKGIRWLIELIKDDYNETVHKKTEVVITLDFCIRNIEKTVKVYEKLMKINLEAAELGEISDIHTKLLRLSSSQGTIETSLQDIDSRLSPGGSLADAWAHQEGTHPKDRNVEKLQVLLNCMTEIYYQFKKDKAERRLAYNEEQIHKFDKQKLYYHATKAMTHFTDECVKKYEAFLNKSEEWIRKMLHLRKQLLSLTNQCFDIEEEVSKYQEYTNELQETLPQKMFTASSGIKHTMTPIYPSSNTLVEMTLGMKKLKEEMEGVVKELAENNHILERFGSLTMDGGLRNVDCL
Method in brief: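 Full-length recombinant enzymes phosphorylated a biotinylated Ser/Thr peptide for 240 min at 25 °C, stopped with EDTA. Phosphopeptide detected by TR-FRET (streptavidin XL665, Eu-cryptate anti-phospho antibody). IC50 from four-parameter fits normalized to 1 μM staurosporine and DMSO controls, as geometric means of at least four determinations.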

SMILES | IC50 [1] | IC50 [2]
Cn1cc(C2CC2C(=O)Nc2cc(-c3ccc(O[C@H]4CCN(C(=O)CO)C[C@H]4F)c(C#N)c3)ccn2)cn1 (stereo partly drawn) [Example 77, N-(4-(3-cyano-4-(((3R,4S)-3-fluoro-1-(2-hydroxyacetyl)piperidin-4-yl)oxy)phenyl)pyridin-2-yl)-2-(1-methyl-1H-pyrazol-4-yl)cyclopropane-1-carboxamide] | 0.0247 µM | 0.0103 µM
N#Cc1cc(-c2ccnc(NC(=O)C3(F)CC3)c2)ccc1O[C@H]1CCN(C(=O)CO)C[C@H]1F [Example 78, N-(4-(3-Cyano-4-(((3R,4S)-3-fluoro-1-(2-hydroxyacetyl)piperidin-4-yl)oxy)phenyl)pyridin-2-yl)-1-fluorocyclopropane-1-carboxamide] | 0.294 µM | 0.4 µM
CN(C)C(=O)[C@@H]1C[C@@H]1C(=O)Nc1cc(-c2ccc(O[C@H]3CCN(C(=O)CO)C[C@H]3F)c(C#N)c2)ccn1 [Example 79, (1,2-cis)-N^1-(4-(3-cyano-4-(((3R,4S)-3-fluoro-1-(2-hydroxyacetyl)piperidin-4-yl)oxy)phenyl)pyridin-2-yl)-N^2,N^2-dimethylcyclopropane-1,2-dicarboxamide] | > 1 µM | > 1 µM
N#Cc1cc(-c2ccnc(NC(=O)[C@H]3C[C@H](O)C3)c2)ccc1O[C@H]1CCN(C(=O)CO)C[C@H]1F [Example 80, (1,3-trans)-N-(4-(3-Cyano-4-(((3R,4S)-3-fluoro-1-(2-hydroxyacetyl)piperidin-4-yl)oxy)phenyl)pyridin-2-yl)-3-hydroxycyclobutane-1-carboxamide] | 0.0752 µM | 0.111 µM
N#Cc1cc(-c2ccnc(NC(=O)C3CC3c3c[nH]cn3)c2)ccc1O[C@H]1CCN(C(=O)CO)C[C@H]1F (stereo partly drawn) [Example 81, N-(4-(3-Cyano-4-(((3R,4S)-3-fluoro-1-(2-hydroxyacetyl)piperidin-4-yl)oxy)phenyl)pyridin-2-yl)-2-(1H-imidazol-4-yl)cyclopropane-1-carboxamide] | 0.047 µM | 0.0188 µM
N#Cc1cc(-c2ccnc(NC(=O)[C@@H]3C[C@H]3C(N)=O)c2)ccc1O[C@H]1CCN(C(=O)CO)C[C@H]1F [Example 85, (1,2-trans)-N-(4-(3-cyano-4-(((3R,4S)-3-fluoro-1-(2-hydroxyacetyl)piperidin-4-yl)oxy)phenyl)pyridin-2-yl)cyclopropane-1,2-dicarboxamide] | 0.115 µM | 0.108 µM
N#Cc1cc(-c2ccnc(NC(=O)[C@@H]3C[C@H]3c3ccccc3)c2)ccc1OC1CCOCC1 [Example 87, (1R,2R)—N-(4-(3-cyano-4-((tetrahydro-2H-pyran-4-yl)oxy)phenyl)pyridin-2-yl)-2-phenylcyclopropane-1-carboxamide] | 0.777 µM | 0.426 µM
Cn1cc([C@@H]2C[C@H]2C(=O)Nc2cc(-c3ccc(O[C@H]4CCN(C(=O)CO)C[C@H]4F)c(C#N)c3)ccn2)cn1 [Example 90, (1,2-trans)-N-(4-(3-cyano-4-(((3R,4S)-3-fluoro-1-(2-hydroxyacetyl)piperidin-4-yl)oxy)phenyl)pyridin-2-yl)-2-(1-methyl-1H-pyrazol-4-yl)cyclopropane-1-carboxamide] | 0.0095 µM | 0.0056 µM
C[C@H]1CCCN1c1ccc(-c2ccnc(NC(=O)C3CC3)c2)cc1C#N [Example 92, (S)—N-(4-(3-cyano-4-(2-methylpyrrolidin-1-yl)phenyl)pyridin-2-yl)cyclopropanecarboxamide] | 0.128 µM | 0.0203 µM
N#Cc1cc(-c2ccnc(NC(=O)C3CC3)c2)ccc1N1CCC[C@H]1CO [Example 93, (S)—N-(4-(3-cyano-4-(2-(hydroxymethyl)pyrrolidin-1-yl)phenyl)pyridin-2-yl)cyclopropanecarboxamide] | 0.508 µM | 0.0703 µM
CO[C@H]1CCN(c2ccc(-c3ccnc(NC(=O)C4CC4)c3)cc2C#N)C1 [Example 94, (S)—N-(4-(3-cyano-4-(3-methoxypyrrolidin-1-yl)phenyl)pyridin-2-yl)cyclopropanecarboxamide] | 0.195 µM | 0.12 µM
N#Cc1cc(-c2ccnc(NC(=O)C3CC3)c2)ccc1N1CCC[C@@H]1C(N)=O [Example 95, (R)-1-(2-cyano-4-(2-(cyclopropanecarboxamido)pyridin-4-yl)phenyl)pyrrolidine-2-carboxamide] | > 1 µM | 0.258 µM
C[C@@H]1CCCN1c1ccc(-c2ccnc(NC(=O)C3CC3)c2)cc1C#N [Example 96, (R)—N-(4-(3-cyano-4-(2-methylpyrrolidin-1-yl)phenyl)pyridin-2-yl)cyclopropanecarboxamide] | 0.231 µM | 0.033 µM
CO[C@@H]1CCN(c2ccc(-c3ccnc(NC(=O)C4CC4)c3)cc2C#N)C1 [Example 97, (R)—N-(4-(3-cyano-4-(3-methoxypyrrolidin-1-yl)phenyl)pyridin-2-yl)cyclopropanecarboxamide] | 0.477 µM | 0.27 µM
N#Cc1cc(-c2ccnc(NC(=O)C3CC3)c2)ccc1CC1CCOCC1 [Example 98, N-(4-(3-cyano-4-((tetrahydro-2H-pyran-4-yl)methyl)phenyl)pyridin-2-yl)cyclopropanecarboxamide] | > 1 µM | > 1 µM
Cn1ccc([C@H]2C[C@@H]2C(=O)Nc2cc(-c3ccc(O[C@H]4CCN(C(=O)CO)CC4(F)F)c(C#N)c3)ccn2)n1 [Example 103, (1S,2S)—N-(4-(3-cyano-4-(((S)-3,3-difluoro-1-(2-hydroxyacetyl)piperidin-4-yl)oxy)phenyl)pyridin-2-yl)-2-(1-methyl-1H-pyrazol-3-yl)cyclopropane-1-carboxamide] | 0.0143 µM | 0.0057 µM
CC(C)(C)OC(=O)N1CC[C@H](Oc2ccc(-c3cc(NC(=O)C4CC4)ncn3)cc2C#N)C(F)(F)C1 [Example 104, Tert-butyl (S)-4-(2-cyano-4-(6-(cyclopropanecarboxamido)pyrimidin-4-yl)phenoxy)-3,3-difluoropiperidine-1-carboxylate] | > 1 µM | > 1 µM
N#Cc1cc(-c2cc(NC(=O)C3CC3)ncn2)ccc1F [Example 105, N-(6-(3-cyano-4-fluorophenyl)pyrimidin-4-yl)cyclopropanecarboxamide] | > 1 µM | > 1 µM
CC(Oc1ccc(-c2cc(NC(=O)C3CC3)ncn2)cc1C#N)C(F)(F)F (centres unmarked) [Example 106, N-(6-(3-cyano-4-((1,1,1-trifluoropropan-2-yl)oxy)phenyl)pyrimidin-4-yl)cyclopropanecarboxamide] | > 1 µM | 0.301 µM
Cc1ncc(C(=O)N2CC[C@H](Oc3ccc(-c4cc(NC(=O)C5CC5)ncn4)cc3C#N)[C@H](F)C2)o1 [Example 107, N-(6-(3-cyano-4-(((3R,4S)-3-fluoro-1-(2-methyloxazole-5-carbonyl)piperidin-4-yl)oxy)phenyl)pyrimidin-4-yl)cyclopropanecarboxamide] | 0.16 µM | 0.0489 µM
Cc1noc([C@@H]2C[C@H]2C(=O)Nc2cc(-c3ccc(OC4CCOCC4)c(C#N)c3)ccn2)n1 [Example 108, (1R,2R)—N-(4-(3-cyano-4-((tetrahydro-2H-pyran-4-yl)oxy)phenyl)pyridin-2-yl)-2-(3-methyl-1,2,4-oxadiazol-5-yl)cyclopropane-1-carboxamide] | 0.322 µM | 0.186 µM
N#Cc1cc(-c2cc(NC(=O)C3CC3)ncn2)ccc1O [Example 109, N-(6-(3-cyano-4-hydroxyphenyl)pyrimidin-4-yl)cyclopropanecarboxamide] | > 1 µM | 0.826 µM
